Laboratory results: patent US10450566B2, “Compounds for inducing anti-tumor immunity and methods thereof” (Cornell University, priority 2013, dated 2019)

What was measured:
Format in all cases: cell-based, mouse
XBP1 = XBP1 splicing and ER stress/lipid gene expression in naïve sDCs by RT-PCR/RT-qPCR
Description: (§1) Murine recombinant cytokines were purchased from Peprotech. Cobalt chloride, Tunicamycin (used at 1 μg/ml), Tiron (used at 100-500 μM) and Vitamin E (α-tocopherol, used at 50-100 μM) were from Sigma. DCFDA staining was utilized for intracellular ROS detection (Abcam). Purified 4-HNE was obtained from Cayman Chemical and 4-HNE-protein adducts in ascites samples and DCs were detected and quantified through competitive ELISA (Cell Biolabs). TOFA (Cayman Chemical) was used at a final concentration of 5 μg/ml to inhibit fatty acid synthesis in DCs by blocking the synthesis of malonyl-CoA by acetyl-CoA carboxylase. The IRE-1α-specific inhibitor 4μ8c (Millipore) was used at a final concentration of 10 μM.
Total RNA from human samples was isolated using the miRVANA miRNA isolation Kit (Life Technologies). RNA from mouse samples was isolated using the Qiazol reagent (Qiagen). […] of RNA were used to generate cDNA using the High Capacity cDNA Reverse Transcription Kit (Life Technologies). Human and mouse Xbp1 splicing assays were performed as described (Lee et al., 2003a; Martinon et al., 2010) using conventional Reverse Transcription PCR (RT-PCR) and primers shown in Table 1. Gene expression analysis was done via Reverse Transcription quantitative PCR (RT-qPCR) using a Stratagene Mx3005 instrument and SYBR green I (Life Technologies). […] All primers used in this study are described in Table 1.
One goal of the present invention was to investigate how the tumor microenvironment influences the functional status of XBP1 in DCs. In particular, one aim of the present invention was to investigate whether cancer-derived factors could participate in triggering ER stress and XBP1 activation in tumor-infiltrating DCs, and determine whether this process could impact the detrimental function of these innate immune cells in hosts with ovarian cancer. […] In particular, naïve sDCs were isolated and stimulated for 24h with cytokines (e.g., IL-10, TGF-β, VEGFα, KC, CCL3, IL-6) at concentrations ranging from 5 ng/ml to 25 ng/ml (FIG. 3A-D). Cells were also exposed for 24 hours to increasing concentrations of cobalt chloride (CoCl2), a chemical inducer of the HIF1α pathway that mimics low oxygen conditions (Piret et al. 2002) (FIG. 3E-F). Splicing and upregulation of XBP1 was determined by RT-qPCR analysis (FIG. 3).
(§2) Whether these reactive aldehyde byproducts could trigger ER stress in DCs was investigated. […] Accordingly, intracellular 4-HNE-protein adducts were also readily found in tDCs isolated from these malignant samples (FIG. 4D). 4-HNE generation in mouse tDCs exposed to cell-free ovarian cancer ascites decreased upon exposure to the common antioxidant Vitamin E (FIG. 4E).

4-HNE-protein adducts = 4-HNE-protein adducts in DCs by competitive ELISA
Description: as §1, §2

tDCs [1] = assay: Intracellular lipid content of tDCs by BODIPY 493/503 staining and flow cytometry; settings: tDCs with 25% cell-free ovarian cancer ascites, 24h, Bodipy493/503
Description: FIG. 9G: graphically depicts the intracellular lipid content of tDCs incubated in vitro with 25% cell-free ovarian cancer ascites supernatants in the presence of the indicated inhibitors. Intracellular lipid content was assessed 24h later via Bodipy493/503 staining. Data are representative of 3 independent experiments with similar results. #P<0.05 compared with control tDC incubated in the absence of cell-free ascites supernatants. *P<0.05 compared with ascites-exposed tDC but left untreated.
as §1
Intracellular lipid content in DCs was evaluated via flow cytometry using 4,4-Difluoro-1,3,5,7,8-Pentamethyl-4-Bora-3a,4a-Diaza-s-Indacene (BODIPY 493/503, Life Technologies) as previously reported (Herber et al., 2010). […] Cells were washed twice with 1×PBS and stained with 500 μl of BODIPY 493/503 at […] in PBS for 15 min at room temperature in the dark. Cells were washed twice and analyzed by flow cytometry. BODIPY 493/503 staining was detected in the PE channel. For intracellular cytokine staining, 5×10^6 cells isolated from malignant peritoneal wash samples of ovarian cancer-bearing mice were stimulated for 6h in 10% FBS complete RPMI containing PMA (Calbiochem), lonomycin (Calbiochem) and Brefeldin A (BioLegend). […] Flow cytometry data was analyzed using FlowJo version 9 or 10.

tDCs [2] = assay: In vitro antigen presentation: OVA-pulsed tDCs cocultured with CFSE-labeled OT-1 T cells; settings: wild type tDC pre-treated, full-length OVA, cell-free malignant ascites
Description: For in vitro antigen presentation experiments, tDC or sDC were sorted from the peritoneal cavity or spleen of XBP1^f/f or XBP1^f/f CD11c-Cre female mice bearing ID8-Defb29/Vegf-A ovarian tumors for 4 weeks (FIG. 1). tDCs were pulsed for overnight 50 μg/ml of full-length endotoxin-free OVA (SIGMA, Grade VII) in the presence or absence of Vitamin E (50 μg/ml) in media containing 25% cell-free ovarian cancer ascites supernatants. DCs were washed twice and cocultured for 3 days with CFSE-labeled CD8^+ T cells immunopurified from OT-1 mice at a 1:10 (DC to T cell) ratio, as previously described (Scarlett et al., 2009).

[3] = naïve sDCs exposed for 3h to increasing amounts

CCCCCC(O)/C=C/C=O (stereo not drawn) [4-HNE, 4-hydroxy-trans-2-nonenal]
BiP and CHOP gene expression (general ER stress response markers) (XBP1; [3]): robust induction
ERdj4 gene expression (XBP1; [3]): upregulation
splicing of the Xbp1 mRNA (XBP1; [3]): rapidly triggered splicing of the Xbp1 mRNA
expression of lipid biosynthetic genes Agpat6, Fasn and Lpar1 (XBP1; naïve sDCs stimulated for 3h): rapidly upregulated
formation of intracellular 4-HNE-protein adducts (4-HNE-protein adducts; naïve sDCs, increasing concentrations of purified 4-HNE): efficiently formed covalent adducts with intracellular proteins

Cc1cc(=O)oc2c(C=O)c(O)ccc12 [4μ8c]
intracellular lipid content of tDCs (tDCs [1]): restricted the observed ascites-induced lipid biogenesis

CCCCCCCCCCCCCCOc1ccc(C(=O)O)o1 [TOFA]
intracellular lipid content of tDCs (tDCs [1]): prevented

Cc1c(C)c2c(c(C)c1O)CC[C@@](C)(CCC[C@H](C)CCC[C@H](C)CCCC(C)C)O2 [Vitamin E, α-tocopherol]
intracellular lipid content of tDCs (tDCs [1]): reduced intracellular lipid content
4-HNE generation (intracellular 4-HNE-protein adducts) in tDCs (4-HNE-protein adducts; mouse tDCs exposed to cell-free ovarian cancer ascites): decreased
antigen-presenting capacity (expansion of OT-1 T cells) (tDCs [2]): phenocopied the enhanced antigen-presenting capacity exhibited by XBP1-deficient tDCs
